Here are results for ten molecules from ChEMBL document CHEMBL3085719, “Structure-based design and synthesis of potent benzothiazole inhibitors of interleukin-2 inducible T cell kinase (ITK)” (Bioorg Med Chem Lett, 2013).

Data set [1] can be described thus: Aqueous solubility of the compound at pH 7.4. In kind it is physicochemical. Conditions: buffer.
A short description of data set [2]: Lipophilicity, log D of the compound at pH 7.4. As to conditions: buffer.
In data set [3] the target is T1, Tyrosine-protein kinase ITK/TSK (Homo sapiens, UniProt Q08881).
T1 sequence (Q08881 whole entry): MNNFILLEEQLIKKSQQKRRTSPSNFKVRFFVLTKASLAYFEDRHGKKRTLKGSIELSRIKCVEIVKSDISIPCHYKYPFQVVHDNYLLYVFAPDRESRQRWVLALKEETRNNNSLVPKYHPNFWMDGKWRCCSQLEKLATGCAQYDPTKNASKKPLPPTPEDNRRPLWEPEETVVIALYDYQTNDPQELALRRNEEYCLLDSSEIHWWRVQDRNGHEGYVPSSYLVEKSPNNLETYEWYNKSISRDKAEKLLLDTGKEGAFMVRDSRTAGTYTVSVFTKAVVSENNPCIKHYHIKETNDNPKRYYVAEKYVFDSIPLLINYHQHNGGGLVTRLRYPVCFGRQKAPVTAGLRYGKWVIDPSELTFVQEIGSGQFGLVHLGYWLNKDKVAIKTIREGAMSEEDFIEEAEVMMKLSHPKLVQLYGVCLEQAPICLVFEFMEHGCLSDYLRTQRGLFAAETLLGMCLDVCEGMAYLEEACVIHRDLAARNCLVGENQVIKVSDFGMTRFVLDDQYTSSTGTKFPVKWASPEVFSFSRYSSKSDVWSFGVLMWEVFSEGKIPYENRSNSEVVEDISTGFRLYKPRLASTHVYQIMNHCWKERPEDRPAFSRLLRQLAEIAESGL
Briefly: Inhibition of ITK in human Jurkat cells assessed as inhibition of PLC-gamma1 phosphorylation by immuno-detection assay. In kind it is cell-based.

In data set [4] the target is T1, Tyrosine-protein kinase ITK/TSK. Briefly: Inhibition of full length GST-tagged ITK (unknown origin) using Ac-EFPIYDFLPAKKK-NH2 as substrate after 35 mins by LC/MS analysis.
In data set [5] the target is Tyrosine-protein kinase Lck (Homo sapiens, UniProt P06239). Briefly: Inhibition of LCK (unknown origin).
Data set [6] is described as follows: Half life in rat at 1 mg/kg, iv. Details: dose 1 mg/kg, route intravenous. Conditions: in vivo. Format: ADME, organism-based.
Data set [7] has as its target T2, Tyrosine-protein kinase TXK (Homo sapiens) (UniProt P42681).
T2 sequence (whole entry): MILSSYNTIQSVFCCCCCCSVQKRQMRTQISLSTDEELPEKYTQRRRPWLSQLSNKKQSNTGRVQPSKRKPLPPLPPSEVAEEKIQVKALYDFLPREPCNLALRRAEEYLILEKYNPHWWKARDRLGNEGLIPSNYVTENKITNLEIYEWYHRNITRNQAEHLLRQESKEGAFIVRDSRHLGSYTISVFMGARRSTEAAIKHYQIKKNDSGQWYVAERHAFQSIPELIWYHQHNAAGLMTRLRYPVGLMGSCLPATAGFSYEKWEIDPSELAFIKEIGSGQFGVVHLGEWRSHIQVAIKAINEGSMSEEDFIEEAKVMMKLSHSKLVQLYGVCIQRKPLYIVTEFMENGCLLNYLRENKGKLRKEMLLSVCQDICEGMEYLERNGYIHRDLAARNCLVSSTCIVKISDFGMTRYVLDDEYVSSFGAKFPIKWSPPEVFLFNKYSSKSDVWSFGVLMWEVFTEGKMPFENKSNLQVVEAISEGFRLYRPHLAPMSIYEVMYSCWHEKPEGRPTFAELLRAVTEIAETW
Kind of data set: Inhibition of TXK (unknown origin) at 0.1 uM relative to control.

Data set [8] can be described thus: Half life in rat at 5 mg/kg, po. In kind it is ADME, organism-based. The arrangement: dose 5 mg/kg, route oral. As to conditions: in vivo.
The nature of data set [9]: Clearance in rat at 1 mg/kg, iv. Details: dose 1 mg/kg, route intravenous. In kind it is ADME, organism-based. As to conditions: in vivo.
Data set [10] has as its target Vascular endothelial growth factor receptor 2 (Homo sapiens) (UniProt P35968). Briefly: Inhibition of KDR (unknown origin) at 0.1 uM relative to control.
A short description of data set [11]: Oral bioavailability in rat at 5 mg/kg. Format: ADME, organism-based. Conditions: in vivo.
Data set [12] in a line: Volume of distribution at steady state in rat at 1 mg/kg, iv. Conditions: in vivo, read-out: Vdss. Format: ADME, organism-based. The arrangement: dose 1 mg/kg, route intravenous.
Data set [13] can be described thus: AUC (last) in rat at 1 mg/kg, iv. In kind it is ADME, organism-based. The arrangement: time 0 - last, dose 1 mg/kg, route intravenous. As to conditions: plasma.
Data set [14] deals with Casein kinase I isoform alpha (Homo sapiens) (UniProt P48729). Briefly: Inhibition of CK1alpha (unknown origin) at 0.1 uM relative to control.
For data set [15], the target named is Receptor-type tyrosine-protein kinase FLT3 (Homo sapiens) (UniProt P36888). Briefly: Inhibition of FLT3 (unknown origin) at 0.1 uM relative to control.
The target of data set [16] is Cyclin-dependent kinase 2 (Homo sapiens) (UniProt P24941). Briefly: Inhibition of CDK2 (unknown origin) at 0.1 uM relative to control.
The target of data set [17] is Tyrosine-protein kinase ABL1 (Homo sapiens) (UniProt P00519). Kind of data set: Inhibition of ABL (unknown origin) at 0.1 uM relative to control.
For data set [18], the target named is Serine/threonine-protein kinase PAK 4 (Homo sapiens) (UniProt O96013). Kind of data set: Inhibition of PAK4 (unknown origin) at 0.1 uM relative to control.
In data set [19] the target is Tyrosine-protein kinase Yes (Homo sapiens) (UniProt P07947). Kind of data set: Inhibition of YES (unknown origin) at 0.1 uM relative to control.
A short description of data set [20]: AUC (last) in rat at 5 mg/kg, po. In kind it is ADME, organism-based. The arrangement: time 0 - last, dose 5 mg/kg, route oral. Conditions: plasma.
Data set [21] deals with T3, Muscle, skeletal receptor tyrosine-protein kinase (Homo sapiens) (UniProt O15146).
T3 sequence (whole entry): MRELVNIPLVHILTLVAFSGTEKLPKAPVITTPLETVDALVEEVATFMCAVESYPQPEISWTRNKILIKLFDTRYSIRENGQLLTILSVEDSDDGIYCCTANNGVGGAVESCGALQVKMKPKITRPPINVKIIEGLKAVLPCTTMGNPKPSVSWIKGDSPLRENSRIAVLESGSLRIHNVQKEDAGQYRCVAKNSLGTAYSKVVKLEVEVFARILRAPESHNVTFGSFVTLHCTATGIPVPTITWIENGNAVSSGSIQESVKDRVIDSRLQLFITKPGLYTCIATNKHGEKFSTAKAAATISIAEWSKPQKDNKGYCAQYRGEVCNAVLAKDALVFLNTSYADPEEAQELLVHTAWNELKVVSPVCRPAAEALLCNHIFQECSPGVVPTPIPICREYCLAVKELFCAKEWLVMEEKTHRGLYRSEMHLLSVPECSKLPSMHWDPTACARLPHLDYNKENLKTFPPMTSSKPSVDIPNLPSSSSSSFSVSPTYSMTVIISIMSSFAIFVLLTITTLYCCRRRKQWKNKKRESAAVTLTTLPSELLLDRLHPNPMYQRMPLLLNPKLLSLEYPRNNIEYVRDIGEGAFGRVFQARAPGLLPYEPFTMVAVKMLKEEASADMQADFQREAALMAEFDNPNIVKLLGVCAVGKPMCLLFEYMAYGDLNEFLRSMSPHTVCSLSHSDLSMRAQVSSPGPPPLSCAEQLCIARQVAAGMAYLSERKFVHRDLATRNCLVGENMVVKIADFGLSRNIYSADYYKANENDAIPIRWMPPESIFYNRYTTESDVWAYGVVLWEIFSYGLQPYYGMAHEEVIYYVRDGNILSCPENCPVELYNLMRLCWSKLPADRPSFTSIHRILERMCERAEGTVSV
Briefly: Inhibition of MUSK (unknown origin) at 1 uM relative to control.

The target of data set [22] is Tyrosine-protein kinase ABL1 (Homo sapiens) (UniProt P00519). Briefly: Inhibition of ABL (unknown origin) at 1 uM relative to control.
Data set [23] deals with RAF proto-oncogene serine/threonine-protein kinase (Homo sapiens), P04049 [Y340D,Y341D]. Kind of data set: Inhibition of RAF Y340D/Y341D double mutant (unknown origin) at 1 uM relative to control.

pIC50, pKi: −log10 of the molar value. Values after ≈ are worked out from the molar mass of the structure shown. Some results are limits rather than exact numbers.

Tyrosine-protein kinase Lck, sequence (P06239 whole entry): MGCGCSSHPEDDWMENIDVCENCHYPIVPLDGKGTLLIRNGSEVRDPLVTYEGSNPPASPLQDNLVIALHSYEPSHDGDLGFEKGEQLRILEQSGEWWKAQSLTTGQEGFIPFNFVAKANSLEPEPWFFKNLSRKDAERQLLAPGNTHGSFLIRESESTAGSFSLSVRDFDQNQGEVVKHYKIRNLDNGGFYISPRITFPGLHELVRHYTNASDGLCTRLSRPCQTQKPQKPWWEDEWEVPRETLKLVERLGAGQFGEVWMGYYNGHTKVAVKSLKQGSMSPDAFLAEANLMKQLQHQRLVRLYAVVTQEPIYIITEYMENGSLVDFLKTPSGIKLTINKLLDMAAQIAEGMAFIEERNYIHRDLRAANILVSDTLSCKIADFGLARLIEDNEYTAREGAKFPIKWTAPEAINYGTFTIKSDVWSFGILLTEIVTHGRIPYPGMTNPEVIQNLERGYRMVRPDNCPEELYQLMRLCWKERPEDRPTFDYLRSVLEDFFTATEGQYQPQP
Tyrosine-protein kinase ABL1 (Homo sapiens), sequence (P00519 whole entry): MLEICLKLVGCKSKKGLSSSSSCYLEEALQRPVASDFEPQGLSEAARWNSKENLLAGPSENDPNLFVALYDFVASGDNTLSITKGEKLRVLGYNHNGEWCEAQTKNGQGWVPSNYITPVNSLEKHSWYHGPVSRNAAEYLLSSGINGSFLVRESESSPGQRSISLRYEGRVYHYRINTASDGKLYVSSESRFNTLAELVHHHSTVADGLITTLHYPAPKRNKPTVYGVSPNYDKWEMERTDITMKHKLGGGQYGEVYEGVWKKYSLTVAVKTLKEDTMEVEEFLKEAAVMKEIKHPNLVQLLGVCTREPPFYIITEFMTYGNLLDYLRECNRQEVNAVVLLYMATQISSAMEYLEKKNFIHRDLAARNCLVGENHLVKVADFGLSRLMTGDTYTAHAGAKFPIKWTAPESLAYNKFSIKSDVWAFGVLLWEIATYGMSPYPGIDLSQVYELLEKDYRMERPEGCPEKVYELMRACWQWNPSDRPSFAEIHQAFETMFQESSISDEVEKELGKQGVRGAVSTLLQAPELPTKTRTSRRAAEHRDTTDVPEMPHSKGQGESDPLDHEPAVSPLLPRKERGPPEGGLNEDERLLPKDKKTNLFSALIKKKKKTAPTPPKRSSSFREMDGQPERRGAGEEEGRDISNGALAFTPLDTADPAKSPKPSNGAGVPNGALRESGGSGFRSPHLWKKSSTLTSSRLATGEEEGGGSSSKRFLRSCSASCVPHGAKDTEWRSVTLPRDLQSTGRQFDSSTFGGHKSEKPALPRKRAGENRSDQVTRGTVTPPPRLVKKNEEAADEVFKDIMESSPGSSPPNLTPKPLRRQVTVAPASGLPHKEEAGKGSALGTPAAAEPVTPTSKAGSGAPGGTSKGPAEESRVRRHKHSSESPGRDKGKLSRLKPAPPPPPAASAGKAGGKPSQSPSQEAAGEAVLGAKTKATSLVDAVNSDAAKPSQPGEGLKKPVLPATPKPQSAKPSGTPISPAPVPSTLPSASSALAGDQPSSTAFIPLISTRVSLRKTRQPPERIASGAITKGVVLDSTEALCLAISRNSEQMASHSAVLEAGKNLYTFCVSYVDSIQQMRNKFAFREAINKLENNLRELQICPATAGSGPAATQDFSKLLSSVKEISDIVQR
Receptor-type tyrosine-protein kinase FLT3 (Homo sapiens), sequence (P36888 whole entry): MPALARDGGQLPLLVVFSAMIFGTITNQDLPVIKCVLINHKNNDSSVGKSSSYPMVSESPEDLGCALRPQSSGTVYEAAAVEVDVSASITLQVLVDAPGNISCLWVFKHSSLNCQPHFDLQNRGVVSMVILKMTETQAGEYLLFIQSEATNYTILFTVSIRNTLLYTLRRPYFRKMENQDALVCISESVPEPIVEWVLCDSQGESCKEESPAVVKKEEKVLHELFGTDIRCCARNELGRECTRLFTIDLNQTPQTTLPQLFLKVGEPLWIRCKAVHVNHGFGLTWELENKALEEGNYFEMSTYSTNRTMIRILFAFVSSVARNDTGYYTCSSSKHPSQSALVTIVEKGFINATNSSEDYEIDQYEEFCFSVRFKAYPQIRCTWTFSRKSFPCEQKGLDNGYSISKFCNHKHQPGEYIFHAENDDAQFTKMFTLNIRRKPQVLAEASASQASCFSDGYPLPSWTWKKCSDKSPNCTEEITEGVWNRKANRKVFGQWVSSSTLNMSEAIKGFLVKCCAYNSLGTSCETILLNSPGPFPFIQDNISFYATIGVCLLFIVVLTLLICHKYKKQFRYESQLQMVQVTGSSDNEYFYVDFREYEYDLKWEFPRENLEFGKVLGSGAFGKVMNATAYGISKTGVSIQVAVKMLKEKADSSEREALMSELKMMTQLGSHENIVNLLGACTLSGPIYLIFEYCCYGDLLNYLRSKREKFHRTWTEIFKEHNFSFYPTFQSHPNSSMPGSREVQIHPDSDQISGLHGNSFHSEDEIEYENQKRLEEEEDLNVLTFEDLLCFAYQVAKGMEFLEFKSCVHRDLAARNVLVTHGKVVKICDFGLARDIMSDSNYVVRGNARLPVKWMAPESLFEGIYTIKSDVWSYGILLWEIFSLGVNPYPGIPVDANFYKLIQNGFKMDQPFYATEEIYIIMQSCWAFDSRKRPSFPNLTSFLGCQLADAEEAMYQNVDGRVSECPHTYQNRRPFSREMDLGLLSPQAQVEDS
Casein kinase I isoform alpha (Homo sapiens), sequence (P48729 2-337 limits assumed): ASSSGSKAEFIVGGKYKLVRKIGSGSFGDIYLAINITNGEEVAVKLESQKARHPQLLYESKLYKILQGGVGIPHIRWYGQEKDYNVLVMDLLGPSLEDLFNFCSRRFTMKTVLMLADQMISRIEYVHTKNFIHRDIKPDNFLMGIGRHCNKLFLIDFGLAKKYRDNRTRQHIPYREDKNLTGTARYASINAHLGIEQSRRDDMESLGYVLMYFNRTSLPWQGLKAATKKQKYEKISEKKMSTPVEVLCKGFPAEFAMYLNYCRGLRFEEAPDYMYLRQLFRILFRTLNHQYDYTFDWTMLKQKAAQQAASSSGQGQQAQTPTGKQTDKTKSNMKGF
Tyrosine-protein kinase Yes (Homo sapiens), sequence (P07947 2-543 limits assumed): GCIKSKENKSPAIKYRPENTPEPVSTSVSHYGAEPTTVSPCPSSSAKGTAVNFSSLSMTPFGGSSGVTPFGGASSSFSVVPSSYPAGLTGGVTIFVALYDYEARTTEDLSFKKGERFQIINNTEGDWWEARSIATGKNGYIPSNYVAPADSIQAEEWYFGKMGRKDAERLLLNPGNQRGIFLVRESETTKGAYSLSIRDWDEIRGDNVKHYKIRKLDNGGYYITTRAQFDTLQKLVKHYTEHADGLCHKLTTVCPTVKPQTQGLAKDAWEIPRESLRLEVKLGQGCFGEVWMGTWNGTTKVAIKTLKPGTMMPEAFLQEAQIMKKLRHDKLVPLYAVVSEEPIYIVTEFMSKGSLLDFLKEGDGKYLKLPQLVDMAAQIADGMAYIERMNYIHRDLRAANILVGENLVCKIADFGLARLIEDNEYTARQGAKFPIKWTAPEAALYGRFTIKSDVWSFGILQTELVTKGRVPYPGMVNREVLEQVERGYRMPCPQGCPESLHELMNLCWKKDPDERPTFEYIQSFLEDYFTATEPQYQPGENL
Vascular endothelial growth factor receptor 2 (Homo sapiens), sequence (P35968 whole entry): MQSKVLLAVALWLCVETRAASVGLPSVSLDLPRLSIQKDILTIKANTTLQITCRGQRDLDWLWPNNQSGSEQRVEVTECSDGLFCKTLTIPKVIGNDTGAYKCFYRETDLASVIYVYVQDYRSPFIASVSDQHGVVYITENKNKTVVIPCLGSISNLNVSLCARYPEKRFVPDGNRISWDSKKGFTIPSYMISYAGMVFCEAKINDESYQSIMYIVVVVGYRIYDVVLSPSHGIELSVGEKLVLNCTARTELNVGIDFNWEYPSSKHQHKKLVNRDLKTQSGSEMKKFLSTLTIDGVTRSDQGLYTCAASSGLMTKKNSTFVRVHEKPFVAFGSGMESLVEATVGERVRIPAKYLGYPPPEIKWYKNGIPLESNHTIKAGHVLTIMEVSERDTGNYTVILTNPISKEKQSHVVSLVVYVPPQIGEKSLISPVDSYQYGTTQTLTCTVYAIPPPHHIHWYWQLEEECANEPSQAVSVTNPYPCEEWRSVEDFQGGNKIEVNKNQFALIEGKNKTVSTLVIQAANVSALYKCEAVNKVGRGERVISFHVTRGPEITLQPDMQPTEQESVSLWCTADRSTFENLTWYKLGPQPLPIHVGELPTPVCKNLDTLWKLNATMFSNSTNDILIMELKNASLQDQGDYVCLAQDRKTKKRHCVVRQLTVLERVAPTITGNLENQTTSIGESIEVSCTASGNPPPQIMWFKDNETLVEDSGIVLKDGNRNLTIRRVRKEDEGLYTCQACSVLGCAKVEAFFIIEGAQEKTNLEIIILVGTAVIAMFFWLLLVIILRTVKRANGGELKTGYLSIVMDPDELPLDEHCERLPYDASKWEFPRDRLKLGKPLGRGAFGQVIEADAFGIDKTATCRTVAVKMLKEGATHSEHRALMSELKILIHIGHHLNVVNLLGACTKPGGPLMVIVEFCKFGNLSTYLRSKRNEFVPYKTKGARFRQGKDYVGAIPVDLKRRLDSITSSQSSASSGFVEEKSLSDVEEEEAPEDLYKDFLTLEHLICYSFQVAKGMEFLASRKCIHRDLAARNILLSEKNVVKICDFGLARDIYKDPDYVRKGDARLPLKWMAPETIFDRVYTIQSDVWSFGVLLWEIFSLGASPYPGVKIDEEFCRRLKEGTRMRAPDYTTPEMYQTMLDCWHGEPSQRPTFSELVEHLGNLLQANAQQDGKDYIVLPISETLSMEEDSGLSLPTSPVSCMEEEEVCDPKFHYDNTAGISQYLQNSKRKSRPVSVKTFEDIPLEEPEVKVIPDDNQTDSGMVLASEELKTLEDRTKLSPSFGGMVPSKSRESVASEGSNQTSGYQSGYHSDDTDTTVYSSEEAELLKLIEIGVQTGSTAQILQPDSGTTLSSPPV

`CN(C)Cc1ccc([C@H]2C[C@@H]2C(=O)Nc2nc3ccc(-c4cccnc4)cc3s2)cc1` (racemic) yielded a solubility in [1] of less than 1 µM. The same molecule returned a logD in [2] of 2.7.

Consider `CN(C)Cc1ccc(C2CC2C(=O)Nc2nc3ccc(-c4cn[nH]c4)cc3s2)cc1` (racemic), for which the pIC50 in [3] was 7.05. In addition, the pKi in [4] was 9.22; in [5], 7.34. This molecule also registered a solubility in [1] of less than 1 µM. The molecule further gave a logD in data set [2] of 3.

Regarding `CN(C)Cc1ccc([C@H]2C[C@@H]2C(=O)Nc2nc3ccc(-c4cn[nH]c4)cc3s2)cc1`, in data set [3], the pIC50 is 7.04. Further, the results for the half-life in [6] and in data set [8] were 3.4 h and 3 h, respectively. For the same molecule, the pKi is 9.15 in data set [4] and 7.26 in [5]. Moreover, the inhibition in data set [7], in data set [10], in data set [14], in data set [15], in data set [16] and in [17] was greater than 50% in each case. Besides, the inhibition in data set [18] and in data set [19] was greater than 50% in each case. The same molecule displayed a clearance in data set [9] of 12 mL/min/kg. In data set [1], the solubility is less than 1 µM. In data set [2], this molecule had a logD of 3. In data set [11], the bioavailability stood at 35%. Moreover, in [12], the Vd is 3.2 L/kg. Moreover, the AUC(0-t) was found to be 2.8 µM·h in data set [13] and 4.8 µM·h in [20].

With `COc1ccc([C@H]2C[C@@H]2C(=O)Nc2nc3ccc(-c4cn[nH]c4)cc3s2)cc1`, in [1], the solubility was less than 1 µM. In data set [2], this molecule displayed a logD of 4.4.

In turn, `CCN(CC)Cc1cc([C@H]2C[C@@H]2C(=O)Nc2nc3ccc(-c4cn[nH]c4)cc3s2)ccc1OC` came in with a solubility in data set [1] of 180 µM (≈ 85.6 µg/mL). The same molecule came in with a logD in data set [2] of 2.6.

In the case of `COc1ccc([C@H]2C[C@@H]2C(=O)Nc2nc3ccc(-c4cncc(CO)c4)cc3s2)cc1` (racemic), the pIC50 in [3] was less than 4.70. Besides, the inhibition in [21], in data set [22] and in data set [23] was greater than 50% in each case. The molecule also showed a pKi in data set [4] of 8.28.

In data set [1], `COc1ccc(C2CC2C(=O)Nc2nc3ccc(-c4cn[nH]c4)cc3s2)cc1` (racemic) registered a solubility of less than 1 µM. The molecule further registered a logD in [2] of 4.4.

`COc1ccc([C@H]2C[C@@H]2C(=O)Nc2nc3ccc(OC)cc3s2)cc1` (racemic) registered a solubility in data set [1] of 11 µM (≈ 3.9 µg/mL).

The molecule `CN(C)Cc1cccc([C@H]2C[C@@H]2C(=O)Nc2nc3ccc(-c4cn[nH]c4)cc3s2)c1` (racemic) had a solubility in [1] of 11 µM (≈ 4.59 µg/mL). The logD in [2] came to 2.8.

In [1], `COc1ccc2nc(NC(=O)[C@H]3C[C@@H]3c3ccccc3)sc2c1` (racemic) showed a solubility of less than 2 µM.

The solubility is the dissolved amount per volume that the medium holds. Low readings indicate a poorly soluble substance, high ones a readily soluble substance. As a reminder, the logD is the decadic logarithm of the distribution of all forms, ionised or not, between an organic phase and buffer at a given pH. Low values mean lower lipophilicity, high ones higher lipophilicity. As usually defined, the pIC50 is −log10 of the IC50, conventionally taken in molar units. One may read the pKi as the Ki on a negative log10 scale, so that one unit is a factor of ten. A high value points to a low Ki. The half-life is the time needed for the level to fall by half in the phase considered. A higher half-life goes with slow decline. The inhibition is the relative decrease from the control value, in per cent. A low value points to a response near the control. As a reminder, the clearance is the volume of plasma or blood freed of the substance per unit of time. A higher clearance goes with efficient removal. The bioavailability is the share of a dose that reaches the circulation, judged against a reference dose that is usually intravenous. A low value points to little systemic uptake. In general, AUC(0-t) refers to the area under the concentration-time curve up to a stated or last time point. The low end stands for less exposure, the high end for more exposure.
